This is an account of results in patent publication US11667649B2, “Heteroaromatic macrocyclic ether chemotherapeutic agents” (Nuvalent, Inc., priority 2020, dated 2023).

The assay relates to TPM3-NTRK1-wt IC50 / primary target (e.g. CD74-ROS1-wt) IC50, Ba/F3 cells. In words: Cell assay TRKA selectivity (TRKA potency divided by primary target potency). The following applies: for TPM3-NTRK1-wt/CD74-ROS1-G2032R: TRKA selectivity ratio: TPM3-NTRK1-wt IC50 / CD74-ROS1-G2032R IC50, Ba/F3 cells; for TPM3-NTRK1-wt/CD74-ROS1-wt: TRKA selectivity ratio: TPM3-NTRK1-wt IC50 / CD74-ROS1-wt IC50, Ba/F3 cells; for TPM3-NTRK1-wt/EML4-ALK-L1196M-G1202R: TRKA selectivity ratio: TPM3-NTRK1-wt IC50 / EML4-ALK-L1196M-G1202R IC50, Ba/F3 cells; for TPM3-NTRK1-wt/EML4-ALK-wt: TRKA selectivity ratio: TPM3-NTRK1-wt IC50 / EML4-ALK-wt IC50, Ba/F3 cells. The class given is cell-based. The procedure, abridged:
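IL-3-independent Ba/F3 lines stably expressing TPM3-TRKA or the primary fusion (e.g. CD74-ROS1 wt) were exposed to 3-fold compound dilutions for 72 h. Viability was read by CellTiter-Glo luminescence, with IC50 from four-parameter logistic fit. Selectivity is TPM3-NTRK1 IC50 divided by primary-target IC50, binned A (>30-fold) to D (<1).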

`CCn1ncc2c1-c1cnc(N)c(c1)O[C@H](C)c1cc(F)ccc1-c1nocc1C2` [Example 99, (19R)-3-ethyl-16-fluoro-19-methyl-10,20-dioxa-3,4,11,23-tetraazapentacyclo[19.3.1.0^2,^6.0^8,^12.0^13,^18]pentacosa-1(24),2(6),4,8,11,13,15,17,21(25),22-decaen-22-amine]: the TPM3-NTRK1-wt/CD74-ROS1-G2032R result is “A (bin A for very high selectivity, ratio>30-fold)”; the TPM3-NTRK1-wt/CD74-ROS1-wt entry is given as “A (bin A for very high selectivity, ratio>30-fold)”; the TPM3-NTRK1-wt/EML4-ALK-L1196M-G1202R entry is given as “C (bin C for moderate selectivity, ratio≥1)”; the TPM3-NTRK1-wt/EML4-ALK-wt result is “B (bin B for high selectivity, ratio>10-fold)”.
As to `C[C@H]1Oc2cc(cnc2N)-c2c(C#N)nn(C)c2Cc2cccnc2-c2ccc(F)cc21` [Example 100, (20R)-23-amino-17-fluoro-5,20-dimethyl-21-oxa-4,5,12,24-tetraazapentacyclo[20.3.1.0^2,^6.0^8,^13.0^14,^19]hexacosa-1(25),2(6),3,8(13),9,11,14,16,18,22(26),23-undecaene-3-carbonitrile], the TPM3-NTRK1-wt/CD74-ROS1-G2032R result is on record as “A (bin A for very high selectivity, ratio>30-fold)”; the TPM3-NTRK1-wt/CD74-ROS1-wt entry is given as “A (bin A for very high selectivity, ratio>30-fold)”; the TPM3-NTRK1-wt/EML4-ALK-L1196M-G1202R entry is listed as “A (bin A for very high selectivity, ratio>30-fold)”; the TPM3-NTRK1-wt/EML4-ALK-wt result was “A (bin A for very high selectivity, ratio>30-fold)”.
Regarding `Cn1nc(C#N)c2c1Cc1cccnc1-c1ccc(F)cc1COc1cc-2cnc1N` [Example 101, 23-amino-17-fluoro-5-methyl-21-oxa-4,5,12,24-tetraazapentacyclo[20.3.1.0^2,^6.0^8,^13.0^14,^19]hexacosa-1(25),2(6),3,8(13),9,11,14,16,18,22(26),23-undecaene-3-carbonitrile], the TPM3-NTRK1-wt/CD74-ROS1-G2032R result is on record as “A (bin A for very high selectivity, ratio>30-fold)”; the TPM3-NTRK1-wt/CD74-ROS1-wt result is reported as “A (bin A for very high selectivity, ratio>30-fold)”; the TPM3-NTRK1-wt/EML4-ALK-L1196M-G1202R entry is “A (bin A for very high selectivity, ratio>30-fold)”; the TPM3-NTRK1-wt/EML4-ALK-wt entry was “A (bin A for very high selectivity, ratio>30-fold)”.
`CCn1ncc2c1-c1cnc(N)c(c1)O[C@H](C)c1cc(F)ccc1-n1nc(C(F)F)cc1C2` [Example 102, (19R)-10-(difluoromethyl)-3-ethyl-16-fluoro-19-methyl-20-oxa-3,4,11,12,23-pentaazapentacyclo[19.3.1.0^2,^6.0^8,^12.0^13,^18]pentacosa-1(24),2(6),4,8,10,13,15,17,21(25),22-decaen-22-amine]: the TPM3-NTRK1-wt/CD74-ROS1-G2032R entry was “A (bin A for very high selectivity, ratio>30-fold)”; the TPM3-NTRK1-wt/CD74-ROS1-wt result is recorded as “A (bin A for very high selectivity, ratio>30-fold)”; the TPM3-NTRK1-wt/EML4-ALK-L1196M-G1202R entry was “C (bin C for moderate selectivity, ratio≥1)”; the TPM3-NTRK1-wt/EML4-ALK-wt entry was “B (bin B for high selectivity, ratio>10-fold)”.
On to `C[C@H]1Oc2cc(cnc2N)-c2c(C#N)nn(C)c2Cc2cc(Cl)nn2-c2ccc(F)cc21` [Example 103, (19R)-22-amino-10-chloro-16-fluoro-5,19-dimethyl-20-oxa-4,5,11,12,23-pentaazapentacyclo[19.3.1.0^2,^6.0^8,^12.0^13,^18]pentacosa-1(24),2(6),3,8,10,13,15,17,21(25),22-decaene-3-carbonitrile], for which the TPM3-NTRK1-wt/CD74-ROS1-G2032R result is listed as “A (bin A for very high selectivity, ratio>30-fold)”; the TPM3-NTRK1-wt/CD74-ROS1-wt entry is recorded as “A (bin A for very high selectivity, ratio>30-fold)”; the TPM3-NTRK1-wt/EML4-ALK-L1196M-G1202R entry is listed as “B (bin B for high selectivity, ratio>10-fold)”; the TPM3-NTRK1-wt/EML4-ALK-wt entry is on record as “A (bin A for very high selectivity, ratio>30-fold)”.
In the case of `C[C@H]1Oc2cc(cnc2N)-c2c(C#N)nn(C)c2Cc2cc(C(F)(F)F)nn2-c2ccc(F)cc21` [Example 104, (19R)-22-amino-16-fluoro-5,19-dimethyl-10-(trifluoromethyl)-20-oxa-4,5,11,12,23-pentaazapentacyclo[19.3.1.0^2,^6.0^8,^12.0^13,^18]pentacosa-1(24),2(6),3,8,10,13,15,17,21(25),22-decaene-3-carbonitrile], the TPM3-NTRK1-wt/CD74-ROS1-G2032R entry is “A (bin A for very high selectivity, ratio>30-fold)”; the TPM3-NTRK1-wt/CD74-ROS1-wt entry was “A (bin A for very high selectivity, ratio>30-fold)”; the TPM3-NTRK1-wt/EML4-ALK-L1196M-G1202R entry is listed as “C (bin C for moderate selectivity, ratio≥1)”; the TPM3-NTRK1-wt/EML4-ALK-wt entry is recorded as “A (bin A for very high selectivity, ratio>30-fold)”.
Take `C[C@H]1Oc2cc(cnc2N)-c2c(C#N)nn(C)c2Cc2cc(F)cnc2-c2ccc(F)cc21` [Example 105, (20R)-23-amino-10,17-difluoro-5,20-dimethyl-21-oxa-4,5,12,24-tetraazapentacyclo[20.3.1.0^2,^6.0^8,^13.0^14,^19]hexacosa-1(25),2(6),3,8(13),9,11,14,16,18,22(26),23-undecaene-3-carbonitrile]: the TPM3-NTRK1-wt/CD74-ROS1-G2032R result is “A (bin A for very high selectivity, ratio>30-fold)”; the TPM3-NTRK1-wt/CD74-ROS1-wt entry is “A (bin A for very high selectivity, ratio>30-fold)”; the TPM3-NTRK1-wt/EML4-ALK-L1196M-G1202R result was “B (bin B for high selectivity, ratio>10-fold)”; the TPM3-NTRK1-wt/EML4-ALK-wt result is reported as “A (bin A for very high selectivity, ratio>30-fold)”.
Turning to `C[C@H]1Oc2cc(cnc2N)-c2c(nnn2CC2CC2)Cc2cc(F)cnc2-c2ccc(F)cc21` [Example 106, (20R)-3-(cyclopropylmethyl)-10,17-difluoro-20-methyl-21-oxa-3,4,5,12,24-pentaazapentacyclo[20.3.1.0^2,^6.0^8,^13.0^14,^19]hexacosa-1(25),2(6),4,8(13),9,11,14,16,18,22(26),23-undecaen-23-amine], the TPM3-NTRK1-wt/CD74-ROS1-G2032R entry is “A (bin A for very high selectivity, ratio>30-fold)”; the TPM3-NTRK1-wt/CD74-ROS1-wt result is given as “A (bin A for very high selectivity, ratio>30-fold)”; the TPM3-NTRK1-wt/EML4-ALK-L1196M-G1202R result is given as “B (bin B for high selectivity, ratio>10-fold)”; the TPM3-NTRK1-wt/EML4-ALK-wt result is reported as “A (bin A for very high selectivity, ratio>30-fold)”.
Regarding `CCn1nnc2c1-c1cnc(N)c(c1)O[C@H](C)c1cc(F)ccc1-n1nc(C(F)(F)F)cc1C2` [Example 107, (19R)-3-ethyl-16-fluoro-19-methyl-10-(trifluoromethyl)-20-oxa-3,4,5,11,12,23-hexaazapentacyclo[19.3.1.0^2,^6.0^8,^12.0^13,^18]pentacosa-1(24),2(6),4,8,10,13,15,17,21(25),22-decaen-22-amine], the TPM3-NTRK1-wt/CD74-ROS1-G2032R entry was “A (bin A for very high selectivity, ratio>30-fold)”; the TPM3-NTRK1-wt/CD74-ROS1-wt result was “A (bin A for very high selectivity, ratio>30-fold)”; the TPM3-NTRK1-wt/EML4-ALK-L1196M-G1202R result was “C (bin C for moderate selectivity, ratio≥1)”; the TPM3-NTRK1-wt/EML4-ALK-wt entry is listed as “C (bin C for moderate selectivity, ratio≥1)”.
As for `C[C@H]1Oc2cc(cnc2N)-c2c(nnn2CC2CC2)Cc2cc(Cl)nn2-c2ccc(F)cc21` [Example 108, (19R)-10-chloro-3-(cyclopropylmethyl)-16-fluoro-19-methyl-20-oxa-3,4,5,11,12,23-hexaazapentacyclo[19.3.1.0^2,^6.0^8,^12.0^13,^18]pentacosa-1(24),2(6),4,8,10,13,15,17,21(25),22-decaen-22-amine], the TPM3-NTRK1-wt/CD74-ROS1-G2032R result is reported as “A (bin A for very high selectivity, ratio>30-fold)”; the TPM3-NTRK1-wt/CD74-ROS1-wt result is “A (bin A for very high selectivity, ratio>30-fold)”; the TPM3-NTRK1-wt/EML4-ALK-L1196M-G1202R result is recorded as “B (bin B for high selectivity, ratio>10-fold)”; the TPM3-NTRK1-wt/EML4-ALK-wt entry is listed as “A (bin A for very high selectivity, ratio>30-fold)”.
For `Cc1cc2n(n1)-c1ccc(F)cc1[C@@H](C)Oc1cc(cnc1N)-c1c(cnn1CC1CC1)C2` [Example 109, (19R)-3-(cyclopropylmethyl)-16-fluoro-10,19-dimethyl-20-oxa-3,4,11,12,23-pentaazapentacyclo[19.3.1.0^2,^6.0^8,^12.0^13,^18]pentacosa-1(24),2(6),4,8,10,13,15,17,21(25),22-decaen-22-amine], the TPM3-NTRK1-wt/CD74-ROS1-G2032R result is “A (bin A for very high selectivity, ratio>30-fold)”; the TPM3-NTRK1-wt/CD74-ROS1-wt result was “A (bin A for very high selectivity, ratio>30-fold)”; the TPM3-NTRK1-wt/EML4-ALK-L1196M-G1202R result is given as “A (bin A for very high selectivity, ratio>30-fold)”; the TPM3-NTRK1-wt/EML4-ALK-wt entry is “A (bin A for very high selectivity, ratio>30-fold)”.
For `Nc1ncc2cc1OCc1cc(F)ccc1-n1nc(Cl)cc1Cc1nnn(CC3CC3)c1-2` [Example 110, 10-chloro-3-(cyclopropylmethyl)-16-fluoro-20-oxa-3,4,5,11,12,23-hexaazapentacyclo[19.3.1.0^2,^6.0^8,^12.0^13,^18]pentacosa-1(24),2(6),4,8,10,13,15,17,21(25),22-decaen-22-amine], the TPM3-NTRK1-wt/CD74-ROS1-G2032R result is on record as “A (bin A for very high selectivity, ratio>30-fold)”; the TPM3-NTRK1-wt/CD74-ROS1-wt result was “A (bin A for very high selectivity, ratio>30-fold)”; the TPM3-NTRK1-wt/EML4-ALK-L1196M-G1202R result is recorded as “A (bin A for very high selectivity, ratio>30-fold)”; the TPM3-NTRK1-wt/EML4-ALK-wt result was “A (bin A for very high selectivity, ratio>30-fold)”.
